{"source": "patent US20250120975A1", "about": "“INTEGRIN INHIBITORS FOR TREATMENT OF PRIMARY SCLEROSING CHOLANGITIS” (Pliant Therapeutics, Inc., priority 2023, published 2025)", "key": {"[1]": {"test": "Plasma and liver concentrations in BALB/c.Mdr2−/− mice at harvest", "type": "in vivo, mouse", "procedure": "(§1) (S)-4-((2-methoxyethyl)(4-(5,6,7,8-tetrahydro-1,8-naphthyridin-2-yl)butyl)amino)-2-(quinazolin-4-ylamino)butanoic acid (or PBS) was dosed once daily orally at 100 mg/kg, 300 mg/kg or 1000 mg/kg (see Table B-2) starting at 6 weeks after birth of the subject and continuing for 6 weeks. All animals were euthanized and necropsied at the end of week 12.\nPlasma samples were assayed by a qualified non-GLP bioanalytical method. Liver samples were homogenized in five volumes of ice-cold water. For plasma and liver homogenate, 20 μL of sample was extracted with 100 μL methanol: acetonitrile (5:95 v: v) containing 10 ng/mL internal standard. The solution was centrifuged at 4000 RPM for 5 minutes and 70 μL of supernatant transferred to injection plate containing 70 μl water. An aliquot of 10 μL was injected to a Sciex 4000 system. Concentrations of (S)-4-((2-methoxyethyl)(4-(5,6,7,8-tetrahydro-1,8-naphthyridin-2-yl)butyl)amino)-2-(quinazolin-4-ylamino)butanoic acid in mouse plasma and liver homogenate were determined by using Analyst 1.6 software (AB Sciex, Foster City, CA). […] Using this bioanalytical method and four-times dilution of the samples, (S)-4-((2-methoxyethyl)(4-(5,6,7,8-tetrahydro-1,8-naphthyridin-2-yl)butyl)amino)-2-(quinazolin-4-ylamino)butanoic acid can be quantified in the range of 0.5-8000 ng/mL in plasma and liver homogenate."}, "pSMAD3": {"system": "pSMAD3", "test": "pSMAD3/SMAD3 MSD assay in mouse liver tissue", "type": "in vivo", "details": "all doses (100, 300, 1000 mg/kg), 6 weeks", "from_the_text": "(§2) The tissue source is BALBc.Mdr2-/−male mice that were 6 weeks old. The Mdr2(abcb4)−/− mouse model of sclerosing cholangitis has been previously described and is a model of spontaneously progressive hepatic fibrosis in mice with deletion of the biliary phospholipid flippase on fibrosis-susceptible background (Mdr2(abcb4)^−/−. BALB/c mouse). See N. Ikenaga, et al. (2015) Am J Pathol. 185 (2): 325-334, the entire contents of which are hereby incorporated by reference in their entirety.\nas §1\nMouse liver tissues were lysed with RIPA buffer with protease inhibitor cocktail. Total protein concentration was determined by Micro BCA kit. MSD GOLD™ 96 Sm Spot SA Plate was washed three times with 150 μL of PBST and 1 μg/mL of biotinylated anti-SMAD2/3 was added to the plate, 25 μL per well (60 Min incubation under agitation). The plate was washed as before and 12.5 μL of unknown samples plus 12.5 μL of PBST were added in duplicates. […] After wash, 150 μL of 1× read buffer was added and the plate was read using an MSD Sector Imager instrument."}, "[2]": {"system": "BALB/c.Mdr2−/− mouse model of biliary fibrosis", "test": "Connective tissue (picrosirius red) histology", "type": "in vivo", "details": "300 and 1000 mg/kg, 6 weeks", "from_the_text": "as §2, §1\nConnective tissue stains were carried out to morphometrically assess fibrosis, through analysis of 10 high power fields per animal."}, "[3]": {"system": "BALB/c.Mdr2−/− mouse model of biliary fibrosis", "test": "Relative and total liver collagen (hydroxyproline)", "type": "in vivo", "details": "6 weeks", "from_the_text": "as §2, §1\nLiver collagen was determined biochemically as hydroxyproline (OHP). See N. Ikenaga, et al. (2015) Am J Pathol. 185 (2): 325-334, the entire contents of which are hereby incorporated by reference in their entirety. Two fresh liver pieces from the left and right liver lobe (120-160 mg each) were hydrolyzed in 2 mL 6N HCl at a temperature of 110° C. for 16 h. Moreover, 20 μL of hydrolysate was evaporated under N2 and OHP was quantified using the chloramine-T/dimethylamino-benzaldehyde method. OHP levels were used to calculate relative (per 100 mg of wet liver) and total (obtained by multiplying liver weights with relative hepatic OHP) hepatic collagen content."}, "[4]": {"system": "subjects with PSC and concomitant IBD", "test": "Phase 2a INTEGRIS-PSC: IBD symptoms (partial Mayo Score)", "type": "in vivo, human", "from_the_text": "Questionnaires to assess PROs will be administered at Baseline, Weeks 4 and 12(Parts 1, 2, and 3) and at Week 24 (Part 3 only), and will include the Chronic Liver Disease Questionnaire (CLDQ), the Itch Numeric Rating Scale (NRS), and the Partial Mayo Score (PMS), when available for use. See A. N. Naegeli, et al. (2015) International Journal of Dermatology 54 (6): 715-722 and Z. M. Younossi, et al. (1999) Gut 45:295-300, the entire contents of which are hereby incorporated by reference in their entirety."}, "[5]": {"system": "BALB/c.Mdr2−/− mouse model of biliary fibrosis", "test": "Assessment of body and organ weights (liver, spleen) and colon length", "type": "in vivo", "details": "6 weeks", "from_the_text": "as §2, §1\nBody, liver and spleen weights and colon length were determined at necropsy. Liver and plasma were snap frozen/preserved in liquid nitrogen. Two pieces of liver were fixed in formalin for histological assessment."}, "[6]": {"system": "BALB/c.Mdr2−/− mouse model of biliary fibrosis", "test": "Direct (invasive) portal venous pressure measurement", "type": "in vivo", "details": "100, 300, 1000 mg/kg PO/QD, 6 weeks", "procedure": "Antifibrotic activity of (S)-4-((2-methoxyethyl)(4-(5,6,7,8-tetrahydro-1,8-naphthyridin-2-yl)butyl)amino)-2-(quinazolin-4-ylamino)butanoic acid was tested in the BALBc.Mdr2−/− murine model of liver biliary fibrosis. […] BALBc.Mdr2−/− mice develop periductular fibrotic lesions at 4 weeks with rapid and progressive fibrotic progression. Bridging fibrosis and early cirrhosis is observed at 12 weeks along with severe portal hypertension and enhanced collagen deposition.\nas §2, with “entirety. […]” for “entirety.”\nAfter laparotomy, the portal vein of the mouse subject was cannulated through an ileocolic vein, and portal pressure was measured directly by inserting a 1.2-Fr high-fidelity pressure catheter. Pressure signals were recorded at 2 kHz for 5 Min, and analyzed using PowerLab software. […]"}, "αVβ6 integrin": {"biological_target": "αVβ6 integrin (Homo sapiens, UniProt P06756+P18564)", "sequence (P06756 31-1048)": "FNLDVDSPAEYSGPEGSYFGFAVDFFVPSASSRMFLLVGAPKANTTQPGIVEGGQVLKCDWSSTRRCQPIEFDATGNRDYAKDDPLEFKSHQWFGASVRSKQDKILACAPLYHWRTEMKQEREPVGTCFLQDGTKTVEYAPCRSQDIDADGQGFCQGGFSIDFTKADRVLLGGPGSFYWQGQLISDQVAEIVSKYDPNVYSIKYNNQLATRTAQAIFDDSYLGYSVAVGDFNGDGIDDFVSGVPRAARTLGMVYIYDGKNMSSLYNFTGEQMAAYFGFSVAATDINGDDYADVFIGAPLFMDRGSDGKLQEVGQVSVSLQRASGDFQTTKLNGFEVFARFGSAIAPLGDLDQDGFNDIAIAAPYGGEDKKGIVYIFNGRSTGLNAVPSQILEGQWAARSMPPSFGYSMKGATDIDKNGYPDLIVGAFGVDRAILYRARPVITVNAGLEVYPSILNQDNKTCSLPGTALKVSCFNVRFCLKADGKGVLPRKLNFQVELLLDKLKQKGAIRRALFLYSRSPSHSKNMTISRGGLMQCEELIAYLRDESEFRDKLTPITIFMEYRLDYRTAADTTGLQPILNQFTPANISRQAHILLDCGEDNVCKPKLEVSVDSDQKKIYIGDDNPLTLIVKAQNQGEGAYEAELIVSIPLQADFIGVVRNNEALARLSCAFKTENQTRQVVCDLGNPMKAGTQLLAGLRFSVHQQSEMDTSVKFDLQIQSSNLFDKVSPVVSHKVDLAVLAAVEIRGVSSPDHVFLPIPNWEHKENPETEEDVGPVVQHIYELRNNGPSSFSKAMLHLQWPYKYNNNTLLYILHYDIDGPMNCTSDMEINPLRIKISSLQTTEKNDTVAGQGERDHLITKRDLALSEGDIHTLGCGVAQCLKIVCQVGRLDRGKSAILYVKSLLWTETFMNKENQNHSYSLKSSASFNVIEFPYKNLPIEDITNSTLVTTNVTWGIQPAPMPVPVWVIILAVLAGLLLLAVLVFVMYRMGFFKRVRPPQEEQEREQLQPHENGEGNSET", "sequence (P18564 22-788)": "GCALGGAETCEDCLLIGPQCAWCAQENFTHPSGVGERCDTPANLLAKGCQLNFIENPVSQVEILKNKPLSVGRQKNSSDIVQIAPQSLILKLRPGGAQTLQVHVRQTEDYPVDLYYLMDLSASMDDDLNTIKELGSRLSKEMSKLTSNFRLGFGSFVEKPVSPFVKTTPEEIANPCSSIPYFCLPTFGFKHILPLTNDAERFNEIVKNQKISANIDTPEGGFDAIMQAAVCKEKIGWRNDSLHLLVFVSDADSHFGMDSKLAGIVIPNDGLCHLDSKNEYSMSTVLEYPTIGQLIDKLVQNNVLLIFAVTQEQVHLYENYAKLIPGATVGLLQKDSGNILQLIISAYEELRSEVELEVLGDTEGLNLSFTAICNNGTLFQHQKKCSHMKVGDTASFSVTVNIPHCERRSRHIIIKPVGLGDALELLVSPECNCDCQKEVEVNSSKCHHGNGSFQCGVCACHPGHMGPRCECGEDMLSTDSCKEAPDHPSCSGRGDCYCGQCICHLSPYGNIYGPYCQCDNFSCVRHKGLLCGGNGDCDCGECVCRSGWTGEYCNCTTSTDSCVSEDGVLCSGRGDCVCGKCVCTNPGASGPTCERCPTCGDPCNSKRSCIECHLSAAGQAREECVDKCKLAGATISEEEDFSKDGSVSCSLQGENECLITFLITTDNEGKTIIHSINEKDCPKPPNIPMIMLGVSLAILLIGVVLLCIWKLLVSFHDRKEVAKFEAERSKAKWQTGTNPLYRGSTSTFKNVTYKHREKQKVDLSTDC", "test": "Inhibition of αVβ6 integrin (IC50)", "type": "binding", "details": "read-out: 50% inhibitory concentration [IC50] αVβ6"}, "[7]": {"details": "1000 mg/kg, relative to the vehicle control"}}}
{"smiles": "COCCN(CCCCc1ccc2c(n1)NCCC2)CC[C@H](Nc1ncnc2ccccc12)C(=O)O", "note": "[Bexotegrast, (S)-4-((2-methoxyethyl)(4-(5,6,7,8-tetrahydro-1,8-naphthyridin-2-yl)butyl)amino)-2-(quinazolin-4-ylamino)butanoic acid]", "values": [{"measurement": "plasma and liver concentrations, comparison of dose groups", "setting": "[1]; 100, 300 and 1000 mg/kg PO/QD, 6 weeks", "value": "higher levels in the 1000 mg/kg group"}, {"measurement": "Kp at 6 weeks", "setting": "[1]; mouse, liver (relative to plasma), BALB/c.Mdr2−/− mice, after 6 weeks of PO/QD dosing, at harvest, read-out: Liver levels (ng/g) relative to the levels seen in the plasma (ng/mL)", "value": "3 to 5"}, {"measurement": "pSMAD3 levels in liver", "setting": "pSMAD3", "value": "decreased"}, {"measurement": "fibrosis by picrosirius red histological staining", "setting": "[2]", "value": "significant reductions"}, {"measurement": "reduction in total hepatic collagen", "setting": "[3]; 1000 mg/kg PO/QD", "value": "approximately 75%"}, {"measurement": "relative hepatic collagen content (normalized to liver weight)", "setting": "[3]; [7]", "value": "decreased"}, {"measurement": "total hepatic collagen content", "setting": "[3]; [7]", "value": "decreased"}, {"measurement": "IBD symptoms in patients with IBD", "setting": "[4]; 40, 80, 160 mg, 12 weeks, Example B-3", "value": "no clinically-relevant changes"}, {"measurement": "IBD symptoms as measured by partial Mayo Score", "setting": "[4]; patients with concomitant IBD, Example B-4", "value": "no change"}, {"measurement": "liver weight relative to vehicle control", "setting": "[5]; 1000 mg/kg/day", "value": "decreased"}, {"measurement": "colon length", "setting": "[5]; 100, 300, 1000 mg/kg", "value": "did not change"}, {"measurement": "spleen weights", "setting": "[5]; all doses (100, 300, 1000 mg/kg)", "value": "no changes"}, {"measurement": "portal venous pressure", "setting": "[6]", "value": "did not induce any changes"}, {"measurement": "IC50", "setting": "αVβ6 integrin", "value": 5.7, "unit": "nM"}]}
